Experiment [1] concerns the target T1, hAChE (Homo sapiens, UniProt P22303).
T1 construct: purchased BioVision ('Bio Vision, Egypt' [sic]; address 155 S. Milpitas Blvd., Milpitas, CA) K197-100
As to the kind of experiment: biochemical. The note with it: mean ± standard deviation; read-out: IC50 ± SD AChE. As for the experimental part: The synthesized compounds were assayed to determine their ability to inhibit hAChE using (K197-100, Bio Vision, Egypt)1. A 96-well plate was used by applying the spectroscopic method of Ellman1, and […]
The compounds were dissolved in a small amount of DMSO to obtain a concentration range of 0.01-10 μM. Each well contained 160 μl of dithiobis-(2-nitrobenzoic acid) (Ellman's reagent, DTNB), 10 μl of the tested compound and 50 μl hAChE solution, while Blank wells contained 160 μl DTNB, 10 μl DMSO, and 50 μl buffer (1 M, pH=8.0, Tris-HCl) . 100% ChE activity (100% activity) contained 160 μl DTNB, 2 μl DMSO, 8 μl buffer and 50 μl hAChE. After 5 min of incubation at 25 […]
Two time points (t1 and t2) in the linear range of the plot were chosen and the corresponding values for the absorbance (OD1 and OD2) were obtained.
The percentage of relative inhibition was calculated from the following equation:
% Relative Inhibition = Slope of[ EC]−Slope of [S] /Slope of[EC ] X100
% Relative Activity = Slope of [S] /Slope of [EC] X100
Where: S, is Sample Screen; EC, is Enzyme Control. […]

Experiment [2] deals with T2, Beta-Amyloid (1–42) (Homo sapiens, UniProt P05067).
T2 construct: SensoLyte® Thioflavin T Beta-Amyloid (1–42) Aggregation Kit; purchased ANASPEC Inc., Fremont, CA, USA
As to the kind of experiment: biochemical. To be noted: Aβ aggregation, Thioflavin T; mean ± standard deviation; read-out: IC50 ± SD Aβ42 inhibition. The method, then:
The β-amyloid aggregation inhibition was measured using the fluorometric SensoLyte® Thioflavin T Beta-Amyloid (1–42) Aggregation Kit (ANASPEC Inc., Fremont, CA., USA) according to the manufacturer's instructions. […]
2. In Vitro Amyloid-β Aggregation Assay
Amyloid-β (1–42) aggregation was measured using the SensoLyte ® Thioflavin T β-Amyloid aggregation kit (AnaSpec, Fremont, CA, USA) 2, according to the manufacturer’s instructions. The assay is based on the property of the Thioflavin T dye, the fluorescence of which increases when it is bound to aggregates of amyloid-β (1 –42) peptides. Briefly, Thioflavin T was dissolved in assay buffer [10 mM Phosphate/150 mM NaCl (pH=8.0)] and used at a concentration of 100 μM. Samples were dissolved in assay buffer, 5 μL of the sample and 85 μL of amyloid-β (1–42) were mixed, followed by the addition of 10 μL of 2mM Thioflavin T.
Thioflavin T fluorescence was measured at intervals of 10 min for 2 h, with an excitation /emission =440 […]
All fluorescence readings are expressed in relative fluorescence units (RFU).
Morin was used as a positive control. Experiments were performed in triplicate and averaged, and the percentage of inhibition of amyloid-β aggregation was calculated according to the following equation:
% Relative Inhibition = (RFU of PC - RFU of S)/ ([…]) x 100
Where: PC, is the Peptide Positive Control or Solvent Control; S, is Sample Screen.
IC50 was generated by plotting the values of percent inhibition against their corresponding logarithmic concentration. Best fitted line was determined and IC50 was calculated from its equation.

For orientation: IC50 means the point on the concentration scale where inhibition reaches its midpoint.

T2 sequence (P05067 672-713): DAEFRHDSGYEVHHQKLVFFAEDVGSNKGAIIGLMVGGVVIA
T1 sequence (P22303 32-614): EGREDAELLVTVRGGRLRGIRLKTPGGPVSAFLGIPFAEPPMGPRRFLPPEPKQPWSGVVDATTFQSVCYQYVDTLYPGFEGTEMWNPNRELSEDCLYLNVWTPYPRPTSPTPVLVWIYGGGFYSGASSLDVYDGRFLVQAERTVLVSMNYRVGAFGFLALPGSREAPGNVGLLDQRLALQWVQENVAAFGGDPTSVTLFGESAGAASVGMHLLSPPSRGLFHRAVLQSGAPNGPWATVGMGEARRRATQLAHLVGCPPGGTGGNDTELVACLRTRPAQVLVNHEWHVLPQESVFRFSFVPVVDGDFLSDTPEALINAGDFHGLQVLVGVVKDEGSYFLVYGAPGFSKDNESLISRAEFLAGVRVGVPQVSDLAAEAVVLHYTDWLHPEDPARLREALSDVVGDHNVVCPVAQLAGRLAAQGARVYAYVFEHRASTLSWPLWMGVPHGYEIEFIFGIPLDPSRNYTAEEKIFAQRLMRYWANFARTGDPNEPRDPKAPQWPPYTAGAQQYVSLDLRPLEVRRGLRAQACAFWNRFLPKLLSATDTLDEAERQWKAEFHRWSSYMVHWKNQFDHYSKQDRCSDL

For the compound `CCOC(=O)C=Cc1ccc(OCc2cn(Cc3ccc(O)c(OC)c3)nn2)c(OC)c1` [Compound 6, ethyl 4-((1-(3-methoxy-4-hydroxybenzyl)-1H-1,2,3-triazol-4-yl)methoxy)-3-methoxyphenyl acrylate], the values for the 50% inhibitory concentration (IC50) in experiment [1] and in experiment [2] were 2520 ± 130 nM and 3060 ± 150 nM, respectively.
On the same counts, the results for `C=CCc1ccc(OCc2cn(Cc3ccc(O)c(OC)c3)nn2)c(OC)c1` [Compound 2, 4-((4-((4-allyl-2-methoxyphenoxy)methyl)-1H-1,2,3-triazol-1-yl)methyl)-2-methoxyphenol] are 26800 ± 1350 nM and 22700 ± 1140 nM.
Regarding `COc1cc(/C=C/C(=O)OCc2cn(Cc3ccc(O)c(OC)c3)nn2)ccc1O` [Compound 9, (E)-(1-(4-hydroxy-3-methoxybenzyl)-1H-1,2,3-triazol-4-yl)methyl 3-(4-hydroxy-3 methoxyphenyl)acrylate], the IC50 in experiment [1] came out at 470 ± 20 nM; in experiment [2], 310 ± 20 nM.
The corresponding values for `COc1cc(Cn2cc(COc3ccc(C=CC=O)cc3OC)nn2)ccc1O` [Compound 3, 4-((1-(3-methoxy-4-hydroxybenzyl)-1H-1,2,3-triazol-4-yl)methoxy)-3-methoxyphenyl acrylaldehyde] are 5530 ± 280 nM and 2860 ± 140 nM.
The corresponding values for `CCOC(=O)c1ccc(OCc2cn(Cc3ccc(O)c(OC)c3)nn2)c(OC)c1` [Compound 4, 4-((1-(3-methoxy-4-hydroxybenzyl)-1H-1,2,3-triazol-4-yl)methoxy)-3-methoxy-ethyl benzoate] are 2110 ± 120 nM and 1590 ± 80 nM.
As to `COc1cc(Cn2cc(COC(=O)c3ccc(O)c(OC)c3)nn2)ccc1O` [Compound 8, (1-(4-hydroxy-3-methoxybenzyl)-1H-1,2,3-triazol-4-yl)methyl 4-hydroxy-3-methoxy benzoate], the figures for the IC50 in experiment [1] and in experiment [2] were 1200 ± 60 nM and 950 ± 50 nM, respectively.
On the same counts, the results for `COc1cc(Cn2cc(COc3ccc(C=O)cc3OC)nn2)ccc1O` [Compound 1, 4-((1-(3-methoxy-4-hydroxybenzyl)-1H-1,2,3-triazol-4-yl)methoxy)-3-methoxybenzaldehyde] are 14200 ± 720 nM and 4850 ± 240 nM.
On the same counts, the results for `COc1cc(Cn2cc(COc3ccc(C(=O)O)cc3OC)nn2)ccc1O` [Compound 5, 4-((1-(3-methoxy-4-hydroxybenzyl)-1H-1,2,3-triazol-4-yl)methoxy)-3-methoxybenzoic acid] are 2110 nM and 1480 ± 70 nM.
On the same counts, the results for `COc1cc(Cn2cc(COc3ccc(C=CC(=O)O)cc3OC)nn2)ccc1O` [Compound 7, 4-((1-(3-methoxy-4-hydroxybenzyl)-1H-1,2,3-triazol-4-yl)methoxy)-3-methoxyphenyl acrylic acid] are 10600 ± 530 nM and 4480 ± 220 nM.

For the origin of these results see publication PMC9850456, “Click-designed vanilloid-triazole conjugates as dual inhibitors of AChE and Aβ aggregation” (RSC Advances, 2023).
